Results on 8 compounds are retold here after PubChem BioAssay (NCI).

Molecules are shown by their SMILES.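 Compound exposure: 48 hours, 5 concentrations, 96-well plates. GI50: concentration for 50% inhibition of growth. Definition used: TGI = concentration required for complete inhibition of growth.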

Test systems include IGROV1 ovarian; TK-10 renal; DU-145 prostate; ACHN renal; NCI-H460 lung; EKVX NSCLC; MCF7 breast; CAKI-1 renal; UACC-257 melanoma; RXF 393 renal.
Holding throughout (assay): growth of human tumour cells (NCI), 48 h

On to `COc1ccccc1CNCCCN1C(=O)c2ccc3c4c(ccc(c24)C1=O)C(=O)N(CCCNCCCCNCCCN)C3=O`, for which the GI50 was 0.359 µM in the experiment with IGROV1 ovarian; 0.959 µM in the experiment with TK-10 renal; 0.682 µM in the experiment on DU-145 prostate; 0.747 µM with ACHN renal; 0.36 µM in the experiment on NCI-H460 lung; 1.39 µM in the experiment with EKVX NSCLC. Further, the GI50 in the experiment on MCF7 breast is 0.2 µM; in the experiment on CAKI-1 renal, 2.6 µM; in the experiment with UACC-257 melanoma, 0.176 µM; in the experiment with RXF 393 renal it was 0.323 µM. Moreover, the TGI in the experiment with IGROV1 ovarian was determined as 11.1 µM; in the experiment with TK-10 renal, 6.28 µM; in the experiment on DU-145 prostate, 2.03 µM; with ACHN renal it was 4.44 µM; in the experiment with NCI-H460 lung, 1.5 µM; with EKVX NSCLC, 3.22 µM. Further, the TGI stood at 0.466 µM in the experiment with MCF7 breast, 10.4 µM in the experiment on CAKI-1 renal, 0.33 µM in the experiment on UACC-257 melanoma and 1.39 µM in the experiment with RXF 393 renal.

Turning to `CCCCCc1cc(/C=C2/N=C(c3ccc[nH]3)C=C2OC)[nH]c1C`, the TGI in the experiment with IGROV1 ovarian is 0.195 µM; in the experiment with TK-10 renal, 1.29 µM; in the experiment with DU-145 prostate, 1.48 µM; in the experiment with ACHN renal, 0.113 µM; with NCI-H460 lung it was 1.26 µM; with EKVX NSCLC, 1.4 µM. For the same compound, the TGI in the experiment on MCF7 breast was 0.0988 µM; in the experiment on CAKI-1 renal, 0.0168 µM; with UACC-257 melanoma, 0.855 µM; in the experiment on RXF 393 renal it was 0.197 µM.

As to `COc1cc(/C=C2\CCC/C(=C\c3cc(CN4CCCC4)c(O)c(OC)c3)C2=O)cc(CN2CCCC2)c1O`, the GI50 with IGROV1 ovarian is 3.24 µM; in the experiment with TK-10 renal, 4.36 µM; with DU-145 prostate it was 4.63 µM; with ACHN renal, 1.71 µM; in the experiment on NCI-H460 lung it was 2.97 µM; in the experiment with EKVX NSCLC it was 6.94 µM. Moreover, the GI50 was 4.82 µM in the experiment on MCF7 breast, 5.51 µM in the experiment on CAKI-1 renal, 5.29 µM in the experiment on UACC-257 melanoma and 1.72 µM with RXF 393 renal. Also, the TGI is 13.3 µM with IGROV1 ovarian; 15.5 µM in the experiment on TK-10 renal; 15.4 µM with DU-145 prostate; 3.43 µM in the experiment on ACHN renal; 10.6 µM in the experiment on NCI-H460 lung; 20.2 µM with EKVX NSCLC. Besides, the TGI amounted to 23.6 µM with MCF7 breast, 17.7 µM in the experiment on CAKI-1 renal, 19.6 µM in the experiment with UACC-257 melanoma and 5.68 µM with RXF 393 renal.

For the compound `CCOC(=O)C#Cc1cccc(C#CC(=O)OCC)c1`, the TGI came out at 32.5 µM with IGROV1 ovarian; 10.6 µM with TK-10 renal; 17.9 µM in the experiment on DU-145 prostate; 11.6 µM with ACHN renal; 39.2 µM in the experiment with NCI-H460 lung; 2.42 µM in the experiment with EKVX NSCLC. The TGI was found to be 15.6 µM in the experiment on MCF7 breast, 10.2 µM in the experiment on CAKI-1 renal, 24.2 µM in the experiment with UACC-257 melanoma and 10.9 µM in the experiment on RXF 393 renal.

Consider `CCN1CCN(Cc2ccc(NC(=O)Nc3nc(-c4cc(OC)c(OC)c(OC)c4)cs3)cc2C(F)(F)F)CC1`, for which the GI50 in the experiment on IGROV1 ovarian is 1.93 µM; in the experiment with TK-10 renal, 1.95 µM; with DU-145 prostate, 2.07 µM; in the experiment on ACHN renal, 1.91 µM; in the experiment on NCI-H460 lung, 1.65 µM; in the experiment with EKVX NSCLC, 1.81 µM. The GI50 in the experiment with MCF7 breast is 1.44 µM; in the experiment on CAKI-1 renal, 1.91 µM; with UACC-257 melanoma it was 1.69 µM; in the experiment with RXF 393 renal, 1.41 µM. Further, the TGI in the experiment with IGROV1 ovarian was found to be 4.59 µM; with TK-10 renal, 4.25 µM; with DU-145 prostate, 4.92 µM; with ACHN renal it was 4.1 µM; in the experiment on NCI-H460 lung, 3.2 µM; in the experiment on EKVX NSCLC, 4.25 µM. In addition, the TGI in the experiment with MCF7 breast stood at 3.02 µM; in the experiment with CAKI-1 renal it was 4.9 µM; in the experiment on UACC-257 melanoma, 3.08 µM; in the experiment with RXF 393 renal it was 2.84 µM.

Take `Cc1ccc(NC(=S)NNC(=S)Nc2ccc(C)cc2)cc1`: the GI50 in the experiment with IGROV1 ovarian is 6.24 µM; in the experiment with TK-10 renal it was 18.2 µM; in the experiment on DU-145 prostate, 6.89 µM; in the experiment with ACHN renal it was 9.7 µM; in the experiment with NCI-H460 lung it was 3.89 µM; with EKVX NSCLC, 17.9 µM. In addition, the GI50 is 3.75 µM in the experiment on MCF7 breast, 3.66 µM in the experiment on CAKI-1 renal, 7.13 µM with UACC-257 melanoma and 5.56 µM with RXF 393 renal. For the same compound, the TGI with IGROV1 ovarian is greater than 100 µM; in the experiment on TK-10 renal, greater than 100 µM; in the experiment with DU-145 prostate, 59.2 µM; in the experiment on ACHN renal it was greater than 100 µM; in the experiment on NCI-H460 lung it was greater than 100 µM; in the experiment on EKVX NSCLC, greater than 100 µM. Further, the TGI in the experiment with MCF7 breast, in the experiment on CAKI-1 renal, in the experiment with UACC-257 melanoma and in the experiment with RXF 393 renal was greater than 100 µM in each case.

As for `CC[C@]12C=CCN3CC[C@@]4(c5ccc(OC)cc5N(C)[C@H]4[C@@](O)(C(=O)OC)[C@@H]1OC(=O)CCC(=O)O[C@H]1CC[C@H]4[C@@H]5CCC6=CC(=O)CC[C@@H]6[C@H]5CC[C@]14C)[C@@H]32`, the GI50 in the experiment with IGROV1 ovarian was 0.973 µM; in the experiment with TK-10 renal it was 1.91 µM; in the experiment with DU-145 prostate, 2.73 µM; with ACHN renal it was 1.57 µM; in the experiment with NCI-H460 lung, 3.01 µM; in the experiment with EKVX NSCLC, 1.7 µM. The GI50 with MCF7 breast is 1.52 µM; with CAKI-1 renal, 1.56 µM; in the experiment on UACC-257 melanoma, 2.65 µM; in the experiment with RXF 393 renal, 1.33 µM. Also, the TGI in the experiment with IGROV1 ovarian was 3.13 µM; in the experiment on TK-10 renal, greater than 50 µM; in the experiment on DU-145 prostate, greater than 50 µM; in the experiment with ACHN renal, greater than 50 µM; in the experiment on NCI-H460 lung, greater than 50 µM; in the experiment on EKVX NSCLC, greater than 50 µM. The TGI was greater than 50 µM with MCF7 breast, greater than 50 µM in the experiment on CAKI-1 renal, greater than 50 µM with UACC-257 melanoma and 4.21 µM with RXF 393 renal.

As to `C=C(C(=O)c1ccccc1)C(NC(C)(C)C)c1ccccc1` (stereo not given), the GI50 is 2.3 µM in the experiment with IGROV1 ovarian; 1.02 µM with TK-10 renal; 3.11 µM with DU-145 prostate; 1.59 µM with ACHN renal; 2.15 µM in the experiment with NCI-H460 lung; 3.53 µM in the experiment on EKVX NSCLC. The GI50 was 1.06 µM in the experiment on MCF7 breast, 1.91 µM with CAKI-1 renal, 1.69 µM in the experiment with UACC-257 melanoma and 1.21 µM in the experiment on RXF 393 renal. For the same compound, the TGI worked out at 6.9 µM with IGROV1 ovarian; 2.25 µM in the experiment on TK-10 renal; 13.2 µM with DU-145 prostate; 4.51 µM in the experiment on ACHN renal; 5.23 µM in the experiment with NCI-H460 lung; 13.7 µM with EKVX NSCLC. Further, the TGI was determined as 8.21 µM with MCF7 breast, 7.42 µM in the experiment with CAKI-1 renal, 4.81 µM in the experiment on UACC-257 melanoma and 2.69 µM in the experiment with RXF 393 renal.
